Source: patent US20100143313A1, “HOMOGENEOUS DIFFERENTIATION OF HEPATOCYTE-LIKE CELLS FROM EMBRYONIC STEM CELLS” (THE GENERAL HOSPITAL CORPORATION, priority 2008, published 2010)

Legend:
Type in all cases: cell-based, murine
[1] = system: ESDE cells; experiment: Urea secretion of ESDE cells into culture media (colorimetric assay); settings: DMSO-stimulated ESDE cells
Description: (§1) FIGS. 3A and 3B are bar graphs showing albumin and urea secretion rates of hepatocyte-like cells. Albumin secretion was measured at various timepoints by ELISA (3A). Urea secretion was measured with a colorimetric assay (3B). […] Urea and albumin secretion rates increased up to forty days of culture. […] Values represent mean±SD of two experiments and repeated in triplicate.
(§2) The maturation of ESDE cells into functional hepatocytes was evaluated by measuring the secretion of albumin and urea into the culture media (FIG. 3). […] Neither albumin nor urea secretion was detectable before day twenty in any of the other conditions tested.
(§3) At day fourteen of culture, the ES cells were stimulated with the chemical agonists listed on Table 1 (above) in high glucose or low glucose DMEM supplemented with 10% FBS and 0.2 μM dexamethasone. The media with chemical agonists were exchanged every other day until day twenty. At day twenty of culture, the ES cells were cultured without the chemical agonists in high glucose or low glucose DMEM supplemented with 10% FBS and 0.2 μM dexamethasone. […]
(§4) Collected medium samples were analyzed for secreted concentrations of mouse albumin by ELISA. […] Urea content was determined with diacetyl monoxime using a commercially available kit (StanBio Laboratory, Boerne, Tex.). The absorbance was measured with a Thermomax microplate reader (Molecular Devices, Sunnyvale, Calif.).

[2] = system: ESDE cells; experiment: RT-PCR gene expression of ESDE cells after agonist induction; settings: for Transcriptional expression of tyrosine aminotransferase (Tat) / expression of albumin (Alb) and cytochrome P450 subunit 3a13 (Cyp3a13) mRNA: RT-PCR; for Transcriptional expression of tyrosine aminotransferase (Tat): over culture time; for expression of albumin (Alb) and cytochrome P450 subunit 3a13 (Cyp3a13) mRNA: day twenty-two, increased at day thirty
Description: Similarly, glucose-6-phosphatase (G6pc) mRNA expression could only be detected with DMSO or RA stimulation. […] Visceral endoderm marker Sox7 was also weakly expressed in every condition except with DMSO induction.
At day fourteen of culture, the ES cells were stimulated with the chemical agonists listed on Table 1 (above) in high glucose or low glucose DMEM supplemented with 10% FBS and 0.2 μM dexamethasone. The media with chemical agonists were exchanged every other day until day twenty. At day twenty of culture, the ES cells were cultured without the chemical agonists in high glucose or low glucose DMEM supplemented with 10% FBS and 0.2 μM dexamethasone. The ES cells were cultured up to day fifty with media exchange every other day.
RNA isolation was performed using the Nucleospin RNAII protocol (Clontech, Mountain View, Calif., USA). Following the removal of genomic DNA with DNase, the column was washed and RNA was eluted with distilled water. The RNA purity was quantified using the absorbance ratio at 260 nm (nucleic acids) and 280 nm (protein) and was greater than 1.9. One-Step RT-PCR kit (Qiagen, Valencia, Calif., USA) was used to analyze gene expression. Reactions were initiated using 10 ng RNA and 0.6 μM primer. RT reaction was conducted at 50° C. and 95° C. for 15 min. Three-step cycling was performed: denaturation at 94° C. for 30 s, annealing at 55° C. for 30 s, and extension at 72° C. for 1 min, with a final extension time of 10 min at 72° C. The number of cycles varied between 30 and 35. Following PCR, samples were run on a 2% agarose gel, stained with ethidium bromide, and imaged using the Fluor-X Multiimager (Bio-Rad, Hercules, Calif., USA). Mouse liver total RNA (Ambion, Austin, Tex., USA) was used as a control for hepatocyte gene expression. Markers: Foxa2, AFP, Sox 17, Albumin, GATA1, Runx2, Foxf1, NKx2.5, Tal1, Pax 6, AAT, CK8, CK18, TTR, CYP3A13, Brachyury, Goosecoid, β-actin.

[3] = system: ESDE cells; experiment: Albumin secretion of ESDE cells into culture media (ELISA); settings: DMSO induction, low glucose
Description: as §1, §2, §3, §4

[4] = system: cytochrome P450 activity (CYP1A1); experiment: EROD assay for inducible cytochrome P450 activity; settings: two-day exposure to 3-methylcholanthrene, day 36
Description: Day-thirty-four ES-derived cells were stimulated with 2 mM 3-methycholanthrene (3-MC) for two days. The conversion of ethyoxyresorufin to fluorescent resorufin was assayed on day thirty-six of culture. Values represent mean±SEM of three experiments and repeated in duplicate.
The EROD assay was used to measure inducible cytochrome P450 activity (CYP1A1) of the hepatocyte-like cells.
The drug metabolizing activity of the ES cell-derived hepatocytes were evaluated using an ethoxyresorufin 0-de-ethylase (EROD) assay. Day thirty-four ES cells were stimulated with 2 mM 3 methycholanthrene (3-MC) for two days. On day 36, the media was replaced with 10 μM ethoxyresorufin (Invitrogen) and 80 μM dicumarol (Sigma) in Earle's Balanced Salt Solution. Solution samples were collected at 5, 15, 25, and 35 minutes after the introduction of substrates. The increase in fluorescence intensity caused by conversion of ethyoxyresorufin to fluorescent resorufin estimates the CYP1A1 activity in hepatocytes.

[5] = system: ESDE cells; experiment: Glycogen staining (periodic acid-Schiff); settings: after thirty-two days of differentiation
Description: Rat primary hepatocytes are capable of secreting albumin at a rate of approximately 2.0 μg/hour/10^6 cells, and the mouse hepatocarcinoma cell line Hepal-6 can produce albumin at a rate of 4.7 μg/hour/10^6 cells. The ability of the ES-derived hepatocyte-like cells to produced and store glycogen was assessed using a periodic acid-Schiff stain. […] The capacity for the hepatocyte-like cells to actively synthesize glycogen was seen after the culture media was switched from the low-glucose differentiation media to high-glucose DMEM supplemented with 10% FBS and 0.2 μM dexamethasone for two days. More intense magenta staining of the hepatocyte-like cells was found after the two-day incubation in high-glucose media.
Periodic acid-Schiff staining kit was purchased from Sigma. Cells were fixed with 4% paraformaldehyde in PBS for 20 minutes at room temperature. Staining procedures were performed according to manufacturer's instruction.

[6] = system: albumin promoter-driven GFP expression in ES-derived endoderm (ESDE) cells; experiment: Screening of agonists for albumin promoter-driven GFP expression in ES-derived endoderm (ESDE) cells, flow cytometry; settings: agonist d14-d20, 2% DMSO, 1 μM Azacytidine, 1 μM Retinoic Acid, 100 μM SNAP, 1 μM A23187, 1 nM vasopressin, 200 μM IBMX, 2 mM phenobarbital, 10 mM nicotinamide, 0.1 μM PGE2; for Cell fraction of day 30 ES-derived cells positive for albumin promoter-driven GFP expression, High Glucose: high glucose DMEM; for Cell fraction of day 30 ES-derived cells positive for albumin promoter-driven GFP expression, Low Glucose: low glucose DMEM
Description: A transgenic ES cell for enhanced green fluorescence protein (GFP) driven by the albumin promoter was used or the purpose of quickly screening different stimulants for hepatic differentiation. After a total of 30 days of differentiation, the various agonists were evaluated for their ability to induce ES-derived endoderm (ESDE) to express the albumin gene. When the ESDE cells were cultured in high glucose conditions, none of the agonists tested were able to increase cell population fraction positive for GFP expression over 10% (Table 1):
Additionally, for the purpose of quickly screening different stimulants for hepatic differentiation, a transgenic ES cell for enhanced green fluorescence protein (GFP) driven by the albumin promoter was used for these preliminary studies. The transgenic murine J1 cell line was obtained from the National Cancer Center Research Institute (Tokyo, Japan). The murine ES cell line D3 (ATCC, Manassas, Va.) was also used to assess the differentiation of ES cells into endoderm and hepatic lineage cells. Undifferentiated ES cells were cultured in Knockout DMEM (Gibco), supplemented with 15% replacement serum, 4 mM L-glutamine (Gibco), 100 U/mL penicillin (Gibco), 100 U/ml streptomycin (Gibco), 10 μg/mL gentamycin (Gibco), 1000 units/mL Leukemia Inhibitory Factor (LIF; Chemicon International, Temecula, Calif.), and 0.1 mM 2-mercaptoethanol (Gibco) on 0.1% gelatin-coated T-75 tissue culture flasks. Culture medium was replaced every day and cells were passaged at dilutions ranging from 1:5 to 1:20 at least once a week. Cells were cultured at 37° C. and in a 5% CO2 incubator.
To isolate the ES-derived cells in co-culture, the ES cells cultured on top of collagen sandwiched hepatocytes were incubated with dispase (1 mg/mL) (Gibco) for 30-60 min at 37° C. After incubation, the ES-derived cells were detached by gentle pipetting. The collagen-sandwiched hepatocytes remained at the bottom of the dish, thus allowing separation of the ES-derived cells from the primary hepatocytes. The isolated ES-derived cells were replated (day 10) on collagen gel coated 35-mm dishes at a density of 400,000 ES-derived cells per dish and cultured in high glucose DMEM supplemented with 10% FBS, 100 ng/mL oncostatin-M (Sigma), 0.2 μM dexamethasone (Sigma), and insulin/transferrin/selenious acid (5 μg/mL, 5 μg/mL, 5 ng/mL, respectively) (BD Biosciences, San Jose, Calif.). The replated cells were allowed to recover for four days before induction of hepatocyte differentiation. […]
Alternatively, Cells were detached from the collagen surface using 10 U/ml collagenase and 1 U/ml dispase in serum-free DMEM for 30 minutes. […] Collected cells were analyzed by flow cytometry (Epics Altra; Becton Dickinson). FACS data was analyzed using CellQuest software. […]

| expression of albumin (Alb) and cytochrome P450 subunit 3a13 (Cyp3a13) mRNA [2] | SMILES | glucose-6-phosphatase (G6pc) mRNA expression ([2]; RT-PCR after induction) | Transcriptional expression of tyrosine aminotransferase (Tat) [2] | Cell fraction of day 30 ES-derived cells positive for albumin promoter-driven GFP expression, High Glucose [6] [%] | Cell fraction of day 30 ES-derived cells positive for albumin promoter-driven GFP expression, Low Glucose [6] [%] | other results |
| --- | --- | --- | --- | --- | --- | --- |
| could be detected by day twenty-two | C[S+](C)[O-] [DMSO, Dimethyl sulfoxide] | detected | highest at day thrity | – | – | urea secretion rate ([1]; day 22): 0.36 μg/hour/106 cells; urea secretion rate ([1]; day forty): 2.45 μg/hour/10^6 cells; Definitive endoderm marker Sox17 expression ([2]; RT-PCR after induction): down-regulated; albumin secretion rate ([3]; day forty): 3.09 μg/hour/10^6 cells; albumin secretion rate ([3]; day twenty-two): 0.34 μg/hour/10^6 cells; EROD activity compared to cells cultured in high glucose media without DMSO stimulation [4]: 20 fold; EROD activity over cells cultured in low glucose media without DMSO stimulation [4]: 4.5 fold; glycogen stores (periodic acid-Schiff stain) [5]: visible glycogen stores |
| – | NC(=O)CC[C@@H]1NC(=O)[C@H](Cc2ccccc2)NC(=O)[C@H](Cc2ccc(O)cc2)NC(=O)[C@@H](N)CSSC[C@@H](C(=O)N2CCC[C@H]2C(=O)N[C@@H](CCCN=C(N)N)C(=O)NCC(N)=O)NC(=O)[C@H](CC(N)=O)NC1=O [vasopressin] | – | – | 4.5 | 59 | – |
| – | CCCCC[C@H](O)/C=C/[C@H]1[C@H](O)CC(=O)[C@@H]1C/C=C\CCCC(=O)O [PGE2, prostaglandin E2] | – | – | 7.8 | 57 | – |
| could be detected by day twenty-two | CC1=C(/C=C/C(C)=C/C=C/C(C)=C/C(=O)O)C(C)(C)CCC1 [Retinoic Acid, all-trans retinoic acid] | detected | highest at day thrity | – | – | – |
